In patent publication US6399659B2, “Hydrazine oxoacetamide derivative and insecticide” (Agro-Kanesho Co., Ltd., priority 1998, dated 2002):

How the values were obtained:
Type in all cases: in vivo
Spodoptera litura = assay: Effect on Spodoptera litura, sprayed Chinese cabbage leaves, death rate; conditions: third-instar larvae, 48 hours
Experimental: An emulsion was prepared from each of the present compounds listed below, in the same manner as that of Preparation Example 2. The obtained emulsion was diluted with water so that the concentration of the present compound would be 50 ppm, 5 ppm or 0.5 ppm to obtain diluted aqueous emulsions.
The diluted aqueous emulsions were sprayed on leaves of Chinese cabbages of a 3-4 leave stage. After drying with air, the leaves were placed in a plastic vessel having a size of 21 cm×13 cm×3 cm (depth). Ten third-instar larvae of Spodoptera litura were released in the vessel. The vessel was closed and placed in a room kept at a constant temperature of 26. 48 hours after, the numbers of surviving and dead ones were counted, and the death rate was calculated.

Plutella xylostella = assay: Effect on Plutella xylostella, sprayed Chinese cabbage leaves, death rate; conditions: third-instar larvae, 48 hours
Experimental: Emulsions of varied concentrations prepared in the same manner as that of the above Biological Test Example 1 were sprayed on leaves of Chinese cabbages of a 3-4 leave stage. After drying with air, the leaves were placed in a plastic vessel having a size of 9 cm (inside diameter)×6.5 cm (depth). Ten third-instar larvae of Plutella xylostella were released in the vessel. The vessel was closed and placed in a room kept at a constant temperature of 26. 48 hours after, the numbers of surviving and dead ones were counted, and the death rate was calculated. The results are shown in following Table 7 together with those obtained with comparative compounds.

Mamestra brassicae = assay: Effect on Mamestra brassicae, insecticidal activity as in Biological Test Example 1
[1] = Peroral acute toxicity for mouse; conditions: 300 mg/kg peroral, male ICR mice, 7 days observation
Experimental: Each of the present compounds was suspended in a 0.5% aqueous carboxymethylcellulose solution to obtain a suspension of a predetermined concentration. Male SIc:ICR mice (SPF) of 6 weeks old (body weight: 29.5 to 34.4 g) were fasted for 3 hours. 1 ml, per 100 g of the body weight, of the suspension was forcibly fed into the stomach of each mouse. Then, a food and water were given to the mice and they were bred in a cage. The observation period after the administration was 7 days. During that period, the life and death, general conditions and change in body weight of the mice were observed. Thereafter, pathologico-anatomic experiments were carried out (two mice in each group).

Compound	death rate (Spodoptera litura; 0.5 ppm) [%]	death rate (Spodoptera litura; 5 ppm) [%]	death rate (Spodoptera litura; 50 ppm) [%]	death rate (Plutella xylostella; 0.5 ppm)	death rate (Plutella xylostella; 5 ppm)	death rate (Plutella xylostella; 50 ppm)	insecticidal activity (death rate) (Mamestra brassicae; 1.25 ppm) [%]	insecticidal activity (death rate) (Mamestra brassicae; 2.5 ppm) [%]	insecticidal activity (death rate) (Mamestra brassicae; 50 ppm) [%]	life and death, general conditions [1]
4-[(4-chlorophenyl)-(ethylaminoxalyl-hydrazono)-methyl]phenyl trifuoromethanesulfonate [Compound 1-5]	100	100	100	0	100	100	89	100	100	Neither death nor abnormality of the general conditions was recognized
COC(=O)C(=O)N/N=C(/c1ccc(Cl)cc1)c1ccc(OS(C)(=O)=O)cc1 [Comparative compound C, reference compound]		0	100							
CNC(=O)C(=O)NN=C(c1ccc(Cl)cc1)c1ccc(OS(=O)(=O)C(F)(F)F)cc1 [Compound 1-3, 4-[(4-chlorophenyl)-(methylaminoxalyl-hydrazono)-methyl]-phenyl trifluoromethanesulfonate]	50	100	100	0	100	100	67	89	100	
CCNC(=O)C(=O)NN=C(c1ccc(Br)cc1)c1ccc(OS(=O)(=O)C(F)(F)F)cc1 [Compound 1-517]	60	100	100				100	100	100	
O=C(NN=C(c1ccc(Cl)cc1)c1ccc(OS(=O)(=O)C(F)(F)F)cc1)C(=O)NC1CC1 [Compound 1-43]	90	100	100				33	67	100	
CNC(=O)C(=O)N(C)N=C(c1ccc(Cl)cc1)c1ccc(OS(=O)(=O)C(F)(F)F)cc1 [Compound 1-178]	30	100	100							
C=CCNC(=O)C(=O)NN=C(c1ccc(Cl)cc1)c1ccc(OS(=O)(=O)C(F)(F)F)cc1 [Compound 1-27]	70	100	100				80	100	100	
CNC(=O)C(=O)NN=C(c1ccc(Br)cc1)c1ccc(OS(=O)(=O)C(F)(F)F)cc1 [Compound 1-515]	75	100	100				60	80	100	
C#CCNC(=O)C(=O)NN=C(c1ccc(Cl)cc1)c1ccc(OS(=O)(=O)C(F)(F)F)cc1 [Compound 1-37]	60	100	100				70	100	100	
O=C(NN=C(c1ccc(Br)cc1)c1ccc(OS(=O)(=O)C(F)(F)F)cc1)C(=O)NC1CC1 [Compound 1-555]	40	100	100							
CCNC(=O)C(=O)NN=C(c1ccc(Cl)cc1)c1ccc(CSC(F)(F)F)cc1 [Compound 2-6]	50	100	100							
CCCNC(=O)C(=O)NN=C(c1ccc(Cl)cc1)c1ccc(OS(=O)(=O)C(F)(F)F)cc1 [Compound 1-7]	70	100	100				50	70	100	
CN(C)C(=O)C(=O)N/N=C(/c1ccc(Cl)cc1)c1ccc(OS(=O)(=O)C(F)(F)F)cc1 [Compound 1-133]	90	100	100				44	100	100	
